Laboratory results taken from patent US20210122730A1, “GLUCOCORTICOID RECEPTOR MODULATORS” (ORIC Pharmaceuticals, Inc., priority 2017, published 2021).

These compounds were tested against T1, GR (Homo sapiens, UniProt P04150) (assay: In Vitro GR Luciferase Reporter Assay (antagonist mode, CHO-K1-GR-MMTV-Luc reporter cells)). Details: antagonist assay with 10 nM Dexamethasone, 18-24 hours.
T1 construct: expressed in transfected cells; host or cells: CHO-K1
T1 sequence (P04150 1-777): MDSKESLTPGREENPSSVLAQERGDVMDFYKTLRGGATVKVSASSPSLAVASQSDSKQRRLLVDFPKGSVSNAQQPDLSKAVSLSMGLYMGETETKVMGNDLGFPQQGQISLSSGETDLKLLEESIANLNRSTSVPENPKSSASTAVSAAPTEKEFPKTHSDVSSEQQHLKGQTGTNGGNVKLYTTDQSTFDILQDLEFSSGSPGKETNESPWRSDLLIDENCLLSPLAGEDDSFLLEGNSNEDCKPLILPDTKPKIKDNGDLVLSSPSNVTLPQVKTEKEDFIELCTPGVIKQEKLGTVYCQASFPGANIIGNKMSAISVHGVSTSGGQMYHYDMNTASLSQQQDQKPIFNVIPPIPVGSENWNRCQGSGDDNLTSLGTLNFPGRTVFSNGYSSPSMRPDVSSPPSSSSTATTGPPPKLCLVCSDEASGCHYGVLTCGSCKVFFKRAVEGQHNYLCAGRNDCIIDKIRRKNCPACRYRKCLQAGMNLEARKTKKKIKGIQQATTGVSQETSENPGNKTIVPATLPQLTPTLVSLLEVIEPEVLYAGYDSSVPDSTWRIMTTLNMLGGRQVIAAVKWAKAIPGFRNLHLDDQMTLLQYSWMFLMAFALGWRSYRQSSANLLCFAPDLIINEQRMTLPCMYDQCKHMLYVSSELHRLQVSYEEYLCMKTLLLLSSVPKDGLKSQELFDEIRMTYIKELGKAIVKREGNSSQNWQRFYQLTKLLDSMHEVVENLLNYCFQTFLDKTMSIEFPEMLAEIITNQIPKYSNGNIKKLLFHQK
Assay type: cell-based
Summary of the method: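 Antagonist mode: compounds (8 serial 1:5 dilutions) added to GR-MMTV-luciferase CHO-K1 reporter cells co-exposed to 10 nM dexamethasone final, in phenol red-free DMEM plus 10% CSS. After roughly 18-24 h at 37° C, OneGlo luminescence read and IC50 calculated.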

| IC50 [µM] | SMILES |
| --- | --- |
| ≤ 0.1 | CN([C@H]1CCC2=Cc3c(cnn3-c3ccc(F)cc3)C[C@]2(C(=O)c2nccs2)C1)S(=O)(=O)c1ccc(F)cc1 [Example 106, 4-fluoro-N-((4aS,6S)-1-(4-fluorophenyl)-4a-(thiazole-2-carbonyl)-4,4a,5,6,7,8-hexahydro-1H-benzo[f]indazol-6-yl)-N-methylbenzenesulfonamide] |
| ≤ 0.1 | CN([C@H]1CCC2=Cc3c(cnn3-c3ccc(F)cc3)C[C@]2(C(=O)c2cc(C(F)(F)F)ccn2)C1)S(=O)(=O)c1cnn(CC2CC2)c1 [Example 108, 1-(cyclopropylmethyl)-N-((4aS,6S)-1-(4-fluorophenyl)-4a-(4-(trifluoromethyl)picolinoyl)-4,4a,5,6,7,8-hexahydro-1H-benzo[f]indazol-6-yl)-N-methyl-1H-pyrazole-4-sulfonamide] |
| ≤ 0.1 | CCN([C@H]1CCC2=Cc3c(cnn3-c3ccc(F)cc3)C[C@]2(C(=O)c2ccc(C3CC3)cn2)C1)S(=O)(=O)c1ccc(F)cc1 [Example 109, N-((4aS,6S)-4a-(5-cyclopropylpicolinoyl)-1-(4-fluorophenyl)-4,4a,5,6,7,8-hexahydro-1H-benzo[f]indazol-6-yl)-N-ethyl-4-fluorobenzenesulfonamide] |
| ≤ 0.1 | CCN([C@H]1CCC2=Cc3c(cnn3-c3ccc(F)cc3)C[C@]2(C(=O)c2ccc(C3CC3)cn2)C1)S(=O)(=O)c1ccc(Cl)cc1 [Example 110, 4-chloro-N-((4aS,6S)-4a-(5-cyclopropylpicolinoyl)-1-(4-fluorophenyl)-4,4a,5,6,7,8-hexahydro-1H-benzo[f]indazol-6-yl)-N-ethylbenzenesulfonamide] |

Further lines, the compound ahead of its results:

| SMILES | IC50 [µM] |
| --- | --- |
| CN([C@H]1CCC2=Cc3c(cnn3-c3ccc(F)cc3)C[C@]2(C(=O)c2ccccn2)C1)S(=O)(=O)c1cccc(C(F)(F)F)c1 [Example 83, N-((4aS,6S)-1-(4-fluorophenyl)-4a-picolinoyl-4,4a,5,6,7,8-hexahydro-1H-benzo[f]indazol-6-yl)-N-methyl-3-(trifluoromethyl)benzenesulfonamide] | ≤ 0.1 |
| CN([C@H]1CCC2=Cc3c(cnn3-c3ccc(F)cc3)C[C@]2(C(=O)c2ccccn2)C1)S(=O)(=O)c1cccnc1 [Example 84, N-((4aS,6S)-1-(4-fluorophenyl)-4a-picolinoyl-4,4a,5,6,7,8-hexahydro-1H-benzo[f]indazol-6-yl)-N-methylpyridine-3-sulfonamide] | ≤ 0.1 |
| CN([C@H]1CCC2=Cc3c(cnn3-c3ccc(F)cc3)C[C@]2(C(=O)c2ccccn2)C1)S(=O)(=O)c1ccc(C(F)(F)F)cc1 [Example 85, N-((4aS,6S)-1-(4-fluorophenyl)-4a-picolinoyl-4,4a,5,6,7,8-hexahydro-1H-benzo[f]indazol-6-yl)-N-methyl-4-(trifluoromethyl)benzenesulfonamide] | ≤ 0.1 |
| CN([C@H]1CCC2=Cc3c(cnn3-c3ccc(F)cc3)C[C@]2(C(=O)c2cc(C(F)(F)F)ccn2)C1)S(=O)(=O)c1ccc(C(F)(F)F)cc1 [Example 86, N-((4aS,6S)-1-(4-fluorophenyl)-4a-(4-(trifluoromethyl)picolinoyl)-4,4a,5,6,7,8-hexahydro-1H-benzo[f]indazol-6-yl)-N-methyl-4-(trifluoromethyl)benzenesulfonamide] | ≤ 0.1 |
| CCn1cc(S(=O)(=O)N(C)[C@H]2CCC3=Cc4c(cnn4-c4ccc(F)cc4)C[C@]3(C(=O)c3cc(C(F)(F)F)ccn3)C2)cn1 [Example 87, 1-ethyl-N-((4aS,6S)-1-(4-fluorophenyl)-4a-(4-(trifluoromethyl)picolinoyl)-4,4a,5,6,7,8-hexahydro-1H-benzo[f]indazol-6-yl)-N-methyl-1H-pyrazole-4-sulfonamide] | ≤ 0.1 |
| CN(C(=O)c1ccccc1)[C@H]1CCC2=Cc3c(cnn3-c3ccc(F)cc3)C[C@]2(C(=O)c2ccccn2)C1 [Example 89, N-((4aS,6S)-1-(4-fluorophenyl)-4a-picolinoyl-4,4a,5,6,7,8-hexahydro-1H-benzo[f]indazol-6-yl)-N-methylbenzamide] | ≤ 0.1 |
| CN(c1ccccc1)S(=O)(=O)[C@H]1CCC2=Cc3c(cnn3-c3ccc(F)cc3)C[C@]2(C(=O)c2ccccn2)C1 [Example 92, (4aS,6S)-1-(4-fluorophenyl)-N-methyl-N-phenyl-4a-picolinoyl-4,4a,5,6,7,8-hexahydro-1H-benzo[f]indazole-6-sulfonamide] | 0.1 to 1 |
| CN([C@@H]1CCC2=Cc3c(cnn3-c3ccc(F)cc3)C[C@]2(C(=O)c2cc(C(F)(F)F)ccn2)C1)S(=O)(=O)c1cnn(C)c1 [Example 95, N-((4aS,6R)-1-(4-fluorophenyl)-4a-(4-(trifluoromethyl)picolinoyl)-4,4a,5,6,7,8-hexahydro-1H-benzo[f]indazol-6-yl)-N,1-dimethyl-1H-pyrazole-4-sulfonamide] | ≤ 0.1 |
| CN(C(=O)c1cnn(C)c1)[C@H]1CCC2=Cc3c(cnn3-c3ccc(F)cc3)C[C@]2(C(=O)c2cc(C(F)(F)F)ccn2)C1 [Example 96, N-((4aS,6S)-1-(4-fluorophenyl)-4a-(4-(trifluoromethyl)picolinoyl)-4,4a,5,6,7,8-hexahydro-1H-benzo[f]indazol-6-yl)-N,1-dimethyl-1H-pyrazole-4-carboxamide] | ≤ 0.1 |
| CC(C)n1cc(S(=O)(=O)N(C)[C@H]2CCC3=Cc4c(cnn4-c4ccc(F)cc4)C[C@]3(C(=O)c3cc(C(F)(F)F)ccn3)C2)cn1 [Example 97, N-((4aS,6S)-1-(4-fluorophenyl)-4a-(4-(trifluoromethyl)picolinoyl)-4,4a,5,6,7,8-hexahydro-1H-benzo[f]indazol-6-yl)-1-isopropyl-N-methyl-1H-pyrazole-4-sulfonamide] | ≤ 0.1 |
| CN([C@H]1CCC2=Cc3c(cnn3-c3ccc(F)cc3)C[C@]2(C(=O)c2cc(C(F)(F)F)ccn2)C1)S(=O)(=O)c1cnn(C)c1 [Example 100, N-((4aS,6S)-1-(4-fluorophenyl)-4a-(4-(trifluoromethyl)picolinoyl)-4,4a,5,6,7,8-hexahydro-1H-benzo[f]indazol-6-yl)-N,1-dimethyl-1H-pyrazole-4-sulfonamide] | 0.1 to 1 |
| CN(c1cnn(C)c1)S(=O)(=O)[C@H]1CCC2=Cc3c(cnn3-c3ccc(F)cc3)C[C@]2(C(=O)c2cc(C(F)(F)F)ccn2)C1 [Example 101, (4aS,6S)-1-(4-fluorophenyl)-N-methyl-N-(1-methyl-1H-pyrazol-4-yl)-4a-(4-(trifluoromethyl)picolinoyl)-4,4a,5,6,7,8-hexahydro-1H-benzo[f]indazole-6-sulfonamide] | 0.1 to 1 |
| CN([C@H]1CCC2=Cc3c(cnn3-c3ccc(F)cc3)C[C@]2(C(=O)c2ccc(C(F)(F)F)cn2)C1)S(=O)(=O)c1ccc(Cl)cc1 [Example 105, 4-chloro-N-((4aS,6S)-1-(4-fluorophenyl)-4a-(5-(trifluoromethyl)picolinoyl)-4,4a,5,6,7,8-hexahydro-1H-benzo[f]indazol-6-yl)-N-methylbenzenesulfonamide] | ≤ 0.1 |

Same assay, conditions: antagonist mode, 10 nM Dexamethasone

| IC50 [µM] | SMILES |
| --- | --- |
| ≤ 0.1 | O=C(c1cc(C(F)(F)F)ccn1)[C@]12Cc3cnn(-c4ccc(F)cc4)c3C=C1CC[C@H](S(=O)(=O)c1cnn(CC(F)(F)F)n1)C2 [Example 115, ((4aS,6S)-1-(4-Fluorophenyl)-6-((2-(2,2,2-trifluoroethyl)-2H-1,2,3-triazol-4-yl)sulfonyl)-1,4,5,6,7,8-hexahydro-4aH-benzo[f]indazol-4a-yl)(4-(trifluoromethyl)pyridin-2-yl)methanone] |
| ≤ 0.1 | CCn1ncc(S(=O)(=O)[C@H]2CCC3=Cc4c(cnn4-c4ccc(F)cc4)C[C@]3(C(=O)c3ccc(C4CC4)cn3)C2)n1 [Example 123, (5-cyclopropylpyridin-2-yl)((4aS,6S)-6-((2-ethyl-2H-1,2,3-triazol-4-yl)sulfonyl)-1-(4-fluorophenyl)-1,4,5,6,7,8-hexahydro-4aH-benzo[f]indazol-4a-yl)methanone] |
| ≤ 0.1 | CN([C@H]1CCC2=Cc3c(cnn3-c3ccc(F)cc3)C[C@]2(C(=O)c2ccc(C3CC3)cn2)C1)S(=O)(=O)c1ccc(F)cc1 [Example 124, N-((4aS,6S)-4a-(5-cyclopropylpicolinoyl)-1-(4-fluorophenyl)-4,4a,5,6,7,8-hexahydro-1H-benzo[f]indazol-6-yl)-4-fluoro-N-methylbenzenesulfonamide] |
| ≤ 0.1 | O=C(c1ccccn1)[C@]12Cc3cnn(-c4ccc(F)cc4)c3C=C1CC[C@](F)(S(=O)(=O)c1ccccc1)C2 [Example 125, ((4aS,6S)-6-fluoro-1-(4-fluorophenyl)-6-(phenylsulfonyl)-1,4,5,6,7,8-hexahydro-4aH-benzo[f]indazol-4a-yl)(pyridin-2-yl)methanone] |
| ≤ 0.1 | CCn1ncc(S(=O)(=O)N(C)[C@H]2CCC3=Cc4c(cnn4-c4ccc(F)cc4)C[C@]3(C(=O)c3cc(C(F)(F)F)ccn3)C2)n1 [Example 126, 2-ethyl-N-((4aS,6S)-1-(4-fluorophenyl)-4a-(4-(trifluoromethyl)picolinoyl)-4,4a,5,6,7,8-hexahydro-1H-benzo[f]indazol-6-yl)-N-methyl-2H-1,2,3-triazole-4-sulfonamide] |
